What all share (assay): NCI tumour cell line growth inhibition, 48 h
Experiment [1] relates to UACC-257 melanoma.
For experiment [2], the system named is LOX IMVI melanoma.
In experiment [3] the test system is HCC-2998 colon.
In experiment [4] the test system is NCI-H460 lung.
The test system of experiment [5] is SF-539 CNS.
Experiment [6] concerns OVCAR-5 ovarian.
The subject of experiment [7] is SK-MEL-5 melanoma.
The subject of experiment [8] is SK-OV-3 ovarian.
For experiment [9], the system named is EKVX NSCLC.
Experiment [10] has as its system SW-620 colon.

Several values for one entry are separate records, joined by “and”; a condition that tells them apart may be missing. Equal entries are not always repeated.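 Growth conditions: 96-well plates. Treatment: test compound, 48 hours, 5 concentrations. Analysis: linear interpolation between bracketing concentrations; unreached endpoints set to highest concentration. GI50 is the concentration that inhibits growth by half. TGI denotes the concentration required for complete inhibition of growth.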

On to `Nc1ccn([C@@H]2S[C@H](CO)[C@@H](O)[C@@H]2F)c(=O)n1`, for which the GI50 in experiment [1] was 1.34 µM; in experiment [2], 0.224 µM; in experiment [3], 3.03 µM; in experiment [4], 0.138 µM; in [5], 0.317 µM; in experiment [6], 0.509 µM. Further, the GI50 in [7] was 0.178 µM; in [8], 0.352 µM; in [9], 0.648 µM; in experiment [10] it was 0.252 µM. Besides, the TGI in experiment [1], in [2], in [3], in [4], in experiment [6] and in [7] was more than 100 µM in each case. Moreover, the TGI in experiment [8], in experiment [9] and in experiment [10] was more than 100 µM throughout.
For `COc1cc2c(cc1OC)C(SC)C(=O)N(Cc1cccc(OC)c1OC)CC2` (centres undefined), the TGI was 32.2 µM in experiment [1]; more than 83.3 µM in [2]; 29.1 µM in experiment [3]; 28.8 µM in experiment [4]; 9.13 µM in [5]; 98.3 µM in [6]. Further, the TGI in experiment [7] is 9.52 µM; in experiment [8], more than 100 µM; in experiment [9], more than 100 µM; in experiment [10], more than 100 µM.
Turning to `C=CC[PH+](c1ccccc1)c1ccccc1.C=CC[PH+](c1ccccc1)c1ccccc1.[Pt+2].[S-]c1ncccn1.[S-]c1ncccn1`, the GI50 in [1] was 11.6 µM; in [2] it was 2.18 µM; in [3], 19.1 µM; in experiment [4] it was 18.5 µM; in experiment [5], 21.4 µM; in experiment [6], 15.1 µM. The GI50 in [7] is 17.3 µM; in experiment [8], more than 100 µM; in experiment [9], 26.9 µM; in [10], 4.75 µM. For the same compound, the TGI came to 37.2 µM in [1]; 5.91 µM in [2]; 41.5 µM in experiment [3]; 48.1 µM in experiment [4]; 52.3 µM in [5]; 34.6 µM in [6]. For the same compound, the TGI in experiment [7] is 38.5 µM; in experiment [8] it was more than 100 µM; in [9], more than 100 µM; in [10] it was 29.7 µM.
On to `CCN(CC)Cc1cc(Nc2cc(C(F)(F)F)c(C#N)c3nc4ccccc4n23)ccc1O`, for which the GI50 in [1] was 1.93 µM; in experiment [2] it was 2.33 µM; in [3], 2.85 µM; in experiment [4], 1.59 µM; in experiment [5], 2.7 µM; in [6] it was 4.84 µM. In addition, the GI50 in experiment [7] was 0.271 µM; in experiment [8] it was 1.98 µM; in [9], 0.526 µM; in experiment [10], 2.61 µM. Besides, the TGI in experiment [1] stood at 7.86 µM; in experiment [2], 13.1 µM; in experiment [3], 15.2 µM; in experiment [4], 10.7 µM; in [5], 11 µM; in [6], 23.4 µM. Also, the TGI in [7] worked out at 1.66 µM; in experiment [8], 8.59 µM; in experiment [9], 8.39 µM; in experiment [10], 10.2 µM.
Take `CCc1ccc(C2=NN(c3ccc(S(C)(=O)=O)cc3)C(=O)CC2)cc1`: the GI50 in experiment [1] is 1.68 µM; in experiment [2], 2.93 µM; in experiment [3], 3.96 µM; in experiment [4], 1.28 µM; in experiment [5], 2.3 µM; in experiment [6], 6.47 µM. The GI50 was 1.64 µM in experiment [7], 2.34 µM in experiment [8], 4.15 µM in experiment [9] and 0.56 µM in experiment [10]. The TGI was 55.3 µM in [1]; more than 100 µM in experiment [2]; 33.4 µM in experiment [3]; 13.1 µM in [4]; 11 µM in experiment [5]; more than 100 µM in experiment [6]. Further, the TGI was 11.1 µM in experiment [7], 12.4 µM in [8], 98.4 µM in experiment [9] and more than 100 µM in experiment [10].
`Oc1c(I)cc(Cl)c2cccnc12`: the GI50 in [1] was 3.61 µM and 24.5 µM; in [2], 2.66 µM and 4.03 µM; in [3], 5.55 µM and 12.7 µM; in [4], 3 µM and 5.84 µM; in experiment [5], 3.31 µM and 24.3 µM; in experiment [6], 6.43 µM and 13.2 µM. In addition, the GI50 in experiment [7] was 1.83 µM and 4.12 µM; in experiment [8], 6.24 µM and 9.06 µM; in experiment [9], 2.89 µM and 25.4 µM; in experiment [10], 4.05 µM and 3.73 µM. Further, the TGI in experiment [1] was 83.5 µM and 71.5 µM; in experiment [2], 39.4 µM and 24.2 µM; in experiment [3], 36 µM and 59.4 µM; in [4] it was > 100 µM and 85.1 µM; in experiment [5], 13.7 µM and 52.6 µM; in experiment [6] it was 73.5 µM and 49.6 µM. Further, the TGI in experiment [7] was 4.23 µM and 16.1 µM; in experiment [8], 22 µM and > 100 µM; in experiment [9] it was 18 µM and 57.9 µM; in experiment [10], > 100 µM and 32.5 µM.
For `C=CC(C)(O)CCC1C(=C)C(O)CC2C(C)(C)CCCC12C` (centres undefined), the TGI in experiment [1] is 39 µM; in experiment [2] it was 38.7 µM; in experiment [3] it was 33.2 µM; in [4], 33.5 µM; in experiment [5], 31.7 µM; in [6], 41.7 µM. Further, the TGI in experiment [7] is 29.5 µM; in [8] it was more than 100 µM; in [9] it was 36.8 µM; in [10] it was 43.5 µM.
Regarding `CN(C)CCNC(=O)c1cccc2cc3ccc4ccccc4c3nc12`, the TGI in experiment [1] was 0.535 µM; in experiment [2], 0.256 µM; in experiment [3], 0.252 µM; in [4], 0.163 µM; in [5] it was 0.39 µM; in [6], 0.706 µM. In addition, the TGI was 0.358 µM in [7], 0.679 µM in [8], 0.495 µM in experiment [9] and 1.19 µM in experiment [10].
Turning to `CC1=C(C(=O)CC(=O)C(=O)Nc2ccccc2C)Sc2ccccc2N1`, the TGI in [1] is more than 100 µM; in experiment [2] it was more than 57.4 µM; in experiment [3], more than 100 µM; in [4], more than 56.2 µM; in experiment [5] it was more than 100 µM; in experiment [6] it was more than 100 µM. The TGI was more than 100 µM in experiment [7], more than 100 µM in experiment [8], more than 100 µM in experiment [9] and more than 54.1 µM in [10].
